Measurements: publication PMC6803965, “A New Class of β–Pyrrolidino-1,2,3-Triazole Derivatives as β-Adrenergic Receptor Inhibitors: Synthesis, Pharmacological, and Docking Studies” (Molecules, 2019)
Converted amounts (≈) assume the structure as drawn.

Tests used:
Enterobacter aerogenes [1] = assay: Antimicrobial well method, zone of inhibition; type: cell-based; details: Klebsiella aerogenes
Description: (§1) Antimicrobial activity was carried out as described previously. Briefly, 20 mL of sterile Mueller Hinton agar (MHA) was poured in the petri plates and kept for solidification. After solidification, the test cultures were swabbed on the top of the media and kept for 10 min to dry. The required concentration (1 mg/well) of synthesized compounds 5a–l was added to each well and left for 30 min at RT for compound diffusion. Ketoconazole (fungi) and streptomycin (bacteria) used for positive controls. The zone of inhibition was recorded in mm and the experiment was repeated twice.

Klebsiella pneumoniae [2] = assay: Antimicrobial well method, zone of inhibition; type: cell-based
Description: as §1

Micrococcus luteus [3] = assay: Antimicrobial well method, zone of inhibition; type: cell-based
Description: as §1

Proteus vulgaris [4] = assay: Antimicrobial well method, zone of inhibition; type: cell-based
Description: as §1

Salmonella paratyphi-B [5] = assay: Antimicrobial well method, zone of inhibition; type: cell-based
Description: as §1

Salmonella typhimurium [6] = assay: Antimicrobial well method, zone of inhibition; type: cell-based; details: Salmonella enterica
Description: as §1

[7] = tested on: Staphylococcus aureus-MRSA; assay: Antimicrobial well method, zone of inhibition; type: cell-based
Description: as §1

Staphylococcus aureus [8] = assay: Antimicrobial well method, zone of inhibition; type: cell-based
Description: as §1

[9] = tested on: Staphylococcus epidermidis; assay: Antimicrobial well method, zone of inhibition; type: cell-based
Description: as §1

Shigella flexneri [10] = assay: Antimicrobial well method, zone of inhibition; type: cell-based
Description: as §1

Enterobacter aerogenes [11] = assay: Minimum inhibitory concentration (MIC); type: cell-based; details: Klebsiella aerogenes; Enterobacter aerogenes; read-out: Minimum inhibitory concentration
Description: (§2) The MIC experiment was carried out according to the standard reference methods. Briefly, the required concentrations of synthesized compounds 5a–l were dissolved in DMSO (Dimethylsulfoxide) in concentrations of 500 µg/mL, 250 µg/mL, 125 µg/mL, 62.5 µg/mL, 31.25 µg/mL, 15.6 µg/mL, and […]. An inoculum of 100 µL from each well (96-well plate) was inoculated. For the positive control, ketoconazole (fungi) and streptomycin (bacteria) was used. The MIC values for the tested bacteria were identified as the lowest inhibiting concentration of compound on the agar plate in visual growth.

Klebsiella pneumoniae [12] = assay: Minimum inhibitory concentration (MIC); type: cell-based; details: read-out: Minimum inhibitory concentration
Description: as §2

Micrococcus luteus [13] = assay: Minimum inhibitory concentration (MIC); type: cell-based; details: read-out: Minimum inhibitory concentration
Description: as §2

Proteus vulgaris [14] = assay: Minimum inhibitory concentration (MIC); type: cell-based; details: read-out: Minimum inhibitory concentration
Description: as §2

Salmonella paratyphi-B [15] = assay: Minimum inhibitory concentration (MIC); type: cell-based
Description: as §2

Salmonella typhimurium [16] = assay: Minimum inhibitory concentration (MIC); type: cell-based; details: Salmonella enterica; Salmonella typhimurium; read-out: Minimum inhibitory concentration
Description: as §2

Shigella flexneri [17] = assay: Minimum inhibitory concentration (MIC); type: cell-based
Description: as §2

[18] = tested on: Staphylococcus aureus-MRSA; assay: Minimum inhibitory concentration (MIC); type: cell-based; details: Staphylococcus aureus-MRSA; read-out: Minimum inhibitory concentration
Description: as §2

Staphylococcus aureus [19] = assay: Minimum inhibitory concentration (MIC); type: cell-based; details: read-out: Minimum inhibitory concentration
Description: as §2

[20] = tested on: Staphylococcus epidermidis; assay: Minimum inhibitory concentration (MIC); type: cell-based; details: read-out: Minimum inhibitory concentration
Description: as §2

Candida albicans = assay: Antimicrobial well method, zone of inhibition; type: cell-based; details: 1 mg/well
Description: as §1

Malassezia pachydermatis = assay: Antimicrobial well method, zone of inhibition; type: cell-based
Description: as §1

A549 cells = assay: Cytotoxicity, aqueous one solution reagent; type: cell-based
Description: (§3) The cytotoxic study was carried out as reported previously. Briefly, IMR90, HepG-2, and A549 cells were grown in DMEM (Dulbecco’s Modified Eagle Medium) that contained 10% fetal bovine serum and 1% antibiotics. A total of 15 × 10^3 cells/well were seeded in 96-well plates and incubated under humidified conditions. Cells were treated with varying concentrations of synthesized triazoles for 24 h. After a 24 h treatment, 20 µL aqueous one solution reagent was added to each well and incubated for 3–4 h under a humidified condition. For IMR90 cells, MTT (MTT = 3-(4,5-dimethyl-2-thiazolyl)-2,5-diphenyl-2H-tetrazolium bromide) (5 mg/mL) was added and incubated for 3–4 h in the dark. After incubation, 100 µL of a 10% SDS (Sodium Dodecyl Sulfate) solution (0.01% HCl) was added to each well. The data was taken using an ELISA (enzyme-linked immunosorbent assay) reader at the absorbance of 490 nm for HepG-2 and A549 cells and 570 nm for IMR90 cells. The cell death was calculated using the following formula: Inhibition (%) = ((A − B)/A) × 100 (A—control group, B—treated group).

HepG-2 cells = assay: Cytotoxicity, aqueous one solution reagent; type: cell-based
Description: as §3

IMR90 cells = assay: Cytotoxicity on normal cells, MTT; type: cell-based; details: IMR-90, human normal IMR90 cells, 24 h treatment, read-out: IC50 against IMR90
Description: as §3

C[C@@H]([C@@H](c1ccccc1)n1cc(CC2(O)CCCCC2)nn1)N1CCCC1 [5b, (1R,2S)-1-((1-(1-Phenyl-2-(pyrrolidin-1-yl)propyl)-1H-1,2,3-triazol-4-yl)methyl) cyclohexanol]
zone of inhibition at 1 mg/well (Enterobacter aerogenes [1]): 12 mm
zone of inhibition at 1 mg/well (Klebsiella pneumoniae [2]): 10 mm
zone of inhibition at 1 mg/well (Micrococcus luteus [3]): 13 mm
zone of inhibition at 1 mg/well (Proteus vulgaris [4]): 12 mm
zone of inhibition at 1 mg/well (Salmonella paratyphi-B [5]): 11 mm
zone of inhibition at 1 mg/well (Salmonella typhimurium [6]): 11 mm
zone of inhibition at 1 mg/well [7]: 12 mm
zone of inhibition at 1 mg/well (Staphylococcus aureus [8]): 10 mm
zone of inhibition at 1 mg/well [9]: 10 mm
melting point: 137 to 138 °C

C[C@@H]([C@@H](c1ccccc1)n1cc(COC(=O)C=Cc2ccccc2)nn1)N1CCCC1 [5c, (1R,2S)-(1-(1-Phenyl-2-(pyrrolidin-1-yl)propyl)-1H-1,2,3-triazol-4-yl)methyl cinnamate]
zone of inhibition at 1 mg/well (Enterobacter aerogenes [1]): 14 mm
zone of inhibition at 1 mg/well (Klebsiella pneumoniae [2]): 12 mm
zone of inhibition at 1 mg/well (Micrococcus luteus [3]): 16 mm
zone of inhibition at 1 mg/well (Proteus vulgaris [4]): 10 mm
zone of inhibition at 1 mg/well (Salmonella paratyphi-B [5]): 14 mm
zone of inhibition at 1 mg/well (Salmonella typhimurium [6]): 12 mm
zone of inhibition at 1 mg/well (Shigella flexneri [10]): 13 mm
zone of inhibition at 1 mg/well [7]: 18 mm
zone of inhibition at 1 mg/well (Staphylococcus aureus [8]): 16 mm
zone of inhibition at 1 mg/well [9]: 15 mm
MIC (Enterobacter aerogenes [11]): 250 µg/mL (≈ 600 µM)
MIC (Klebsiella pneumoniae [12]): 500 µg/mL (≈ 1200 µM)
MIC (Micrococcus luteus [13]): 125 µg/mL (≈ 300 µM)
MIC (Proteus vulgaris [14]): 500 µg/mL (≈ 1200 µM)
MIC (Salmonella paratyphi-B [15]): 250 µg/mL (≈ 600 µM)
MIC (Salmonella typhimurium [16]): 500 µg/mL (≈ 1200 µM)
MIC (Shigella flexneri [17]): 250 µg/mL (≈ 600 µM)
MIC [18]: 125 µg/mL (≈ 300 µM)
MIC (Staphylococcus aureus [19]): 125 µg/mL (≈ 300 µM)
MIC [20]: 250 µg/mL (≈ 600 µM)
melting point: 140 to 141 °C

C[C@@H]([C@@H](c1ccccc1)n1cc(COC(=O)c2ccccc2)nn1)N1CCCC1 [5d, (1R,2S)-(1-(1-Phenyl-2-(pyrrolidin-1-yl)propyl)-1H-1,2,3-triazol-4-yl)methyl benzoate]
zone of inhibition (Candida albicans): 13 mm
zone of inhibition at 1 mg/well (Enterobacter aerogenes [1]): 10 mm
zone of inhibition at 1 mg/well (Malassezia pachydermatis): 10 mm
zone of inhibition at 1 mg/well (Micrococcus luteus [3]): 19 mm
zone of inhibition at 1 mg/well (Salmonella paratyphi-B [5]): 14 mm
zone of inhibition at 1 mg/well (Salmonella typhimurium [6]): 12 mm
zone of inhibition at 1 mg/well (Shigella flexneri [10]): 13 mm
zone of inhibition at 1 mg/well [7]: 16 mm
zone of inhibition at 1 mg/well (Staphylococcus aureus [8]): 13 mm
zone of inhibition at 1 mg/well [9]: 13 mm
MIC (Enterobacter aerogenes [11]): 500 µg/mL (≈ 1280 µM)
MIC (Micrococcus luteus [13]): 62.5 µg/mL (≈ 160 µM)
MIC (Salmonella paratyphi-B [15]): 250 µg/mL (≈ 640 µM)
MIC (Salmonella typhimurium [16]): 500 µg/mL (≈ 1280 µM)
MIC (Shigella flexneri [17]): 250 µg/mL (≈ 640 µM)
MIC [18]: 125 µg/mL (≈ 320 µM)
MIC (Staphylococcus aureus [19]): 250 µg/mL (≈ 640 µM)
MIC [20]: 250 µg/mL (≈ 640 µM)
melting point: 129 to 130 °C

COc1ccc(Br)c(C(=O)OCc2cn(C(c3ccccc3)C(C)N3CCCC3)nn2)c1 [5e, (1R,2S)-(1-(1-Phenyl-2-(pyrrolidin-1-yl)propyl)-1H-1,2,3-triazol-4-yl)methyl-2-bromo-5-methoxy benzoate]
zone of inhibition (Candida albicans): 15 mm
zone of inhibition at 1 mg/well (Enterobacter aerogenes [1]): 10 mm
zone of inhibition at 1 mg/well (Klebsiella pneumoniae [2]): 10 mm
zone of inhibition at 1 mg/well (Malassezia pachydermatis): 14 mm
zone of inhibition at 1 mg/well (Micrococcus luteus [3]): 15 mm
zone of inhibition at 1 mg/well (Proteus vulgaris [4]): 13 mm
zone of inhibition at 1 mg/well (Salmonella paratyphi-B [5]): 10 mm
zone of inhibition at 1 mg/well (Salmonella typhimurium [6]): 12 mm
zone of inhibition at 1 mg/well (Shigella flexneri [10]): 15 mm
zone of inhibition at 1 mg/well [7]: 10 mm
zone of inhibition at 1 mg/well (Staphylococcus aureus [8]): 12 mm
zone of inhibition at 1 mg/well [9]: 10 mm
cytotoxic / anticancer activity against A549 cells (A549 cells): promising anticancer activity
IC50 (A549 cells; Homo sapiens, 24 h treatment, read-out: IC50 against A549): 130 ± 0.65 µM
cytotoxic activity against HepG-2 cells (HepG-2 cells): moderate activity
IC50 (HepG-2 cells; Homo sapiens, HepG2, 24 h treatment, read-out: IC50 against HepG-2): 164 ± 2.01 µM
IC50 (IMR90 cells): > 250 µM

CC([C@@H](c1ccccc1)n1cc(CN(C)[C@@H](C)Cc2ccccc2)nn1)N1CCCC1 (stereo partly drawn) [5f, (1R,2S)-N-Methyl-1-phenyl-N-((1-(1-phenyl-2-(pyrrolidin-1-yl)propyl)-1H-1,2,3-triazol-4-yl)methyl)propan-2-amine]
zone of inhibition at 1 mg/well (Klebsiella pneumoniae [2]): 18 mm
zone of inhibition at 1 mg/well (Malassezia pachydermatis): 12 mm
zone of inhibition at 1 mg/well (Micrococcus luteus [3]): 13 mm
zone of inhibition at 1 mg/well (Salmonella paratyphi-B [5]): 14 mm
zone of inhibition at 1 mg/well (Shigella flexneri [10]): 19 mm
zone of inhibition at 1 mg/well [7]: 15 mm
zone of inhibition at 1 mg/well [9]: 17 mm
MIC (Klebsiella pneumoniae [12]): 125 µg/mL (≈ 299 µM)
MIC (Micrococcus luteus [13]): 250 µg/mL (≈ 599 µM)
MIC (Salmonella paratyphi-B [15]): 250 µg/mL (≈ 599 µM)
MIC (Shigella flexneri [17]): 62.5 µg/mL (≈ 150 µM)
MIC [18]: 250 µg/mL (≈ 599 µM)
MIC [20]: 125 µg/mL (≈ 299 µM)
melting point: 118 to 119 °C
